{"source": "patent US8198317B2", "about": "“Methylenedioxy phenolic compounds and their use to treat disease” (The Ohio State University Research Foundation, priority 2008, dated 2012)", "key": {"C57Bl/6 mice": {"system": "C57Bl/6 mice", "assay": "SREBP-2, LDLR and LDL in vivo in mice", "set-up": "species or system mouse", "conditions": "20 mg/kg/day intraperitoneally, two weeks", "protocol": "To study the effect of INV-75 on SREBP activity in vivo experiment was performed as follows: C57bl/6 mice (6/group) were intraperitoneally injected with INV-75 (20 mg/kg/day, for two weeks). The binding activity of SREBP2 in nuclear proteins of liver homogenates was measured by electrophoretic migration shift assay (EMSA). Simultaneously multiple genes involved in cholesterol synthesis and regulation, apolipoprotein gene expression and expression of PCSK9 (Proprotein convertase subtilisin/kexin type 9) were also studied in the liver. PCSK9 is known to regulate LDL receptor expression by binding to the epidermal growth factor-like repeat A (EGF-A) domain of the low-density lipoprotein receptor (LDLR), inducing LDLR degradation."}, "LDL receptor": {"system": "LDL receptor", "assay": "LDL receptor mRNA by RT-PCR in HepG2 cells", "assay_type": "cell-based, human", "conditions": "HepG2, time dependent and dose dependent", "protocol": "FIG. 5E is graph showing time course of low density lipoprotein receptor (LDLR) messenger RNA (mRNA) with INV-75 assessed by quantitative real time polymerase chain reaction (RT-PCR). A total of three experiments were performed. *, p<0.01 by ANOVA compared to vehicle.\nFIG. 5F is a graph showing dose dependency experiments of low density lipoprotein receptor (LDLR) messenger RNA (mRNA) measurement with INV-75. HepG2 cells were stimulated with multiple concentrations of INV-75 for 1 hour and LDL mRNA expression was measured by quantitative real time polymerase chain reaction (RT-PCR). A total of three experiments were performed. *, p<0.01 by ANOVA compared to vehicle. Dose of INV-75 is log molar concentration.\nNext we investigated the effect of INV-75 in regulating LDL receptor expression in the same cells using a similar protocol to assess dose and temporal dependence. FIGS. 5E and 5F depict the time course of LDL receptor expression and dose dependence in response to INV-75. […] INV-75 had no effects on SREBP-1 regulation (data not shown). Simultaneously multiple genes involved in cholesterol synthesis and regulation, apolipoprotein gene expression and expression of PCSK9 (Proprotein convertase subtilisin/kexin type 9) was tested. […]"}, "SREBP-2": {"system": "SREBP-2", "assay": "SREBP-2 precursor and mature form by western analysis in HepG2 cells", "assay_type": "cell-based, human", "conditions": "HepG2, 1 hour", "protocol": "FIG. 5C is a graph showing in vitro time course SREBP2 activation measured by the assessment of the mature form with INV-75 in the cytoplasm of treated cells. HepG2 cells were stimulated with INV-75 (0.1 mM) for four hours and the mature and precursor forms of SREBP2 was measured by western blot analysis. A total of three experiments were performed. *, p<0.01 by ANOVA compared to vehicle. The corresponding western blot is depicted on the right. Time is in hours on the right.\nFIG. 5D is a graph showing dose dependent effects of INV-75 on SREBP2 activation assessed with mature form INV-75. HepG2 cells were stimulated with multiple concentrations of INV-75 for 1 hour and the mature and precursor forms of SREBP2 was measured by western blot analysis. A total of three experiments were performed. *, p<0.01 by ANOVA compared to vehicle. Dose of INV-75 is log molar concentration.\nA family of transcription factors designated SREBP (sterol regulatory element binding proteins) regulate synthesis of cholesterol and fatty acids. […] The time course with this dose and dose dependence was analyzed. Next we assessed the expression of both precursor and mature form of SREBP-2 in the cytoplasm by western analysis. Both time course and dose dependence of mature form of SREBP-2 was analyzed."}, "SREBP-1": {"system": "SREBP-1", "assay": "SREBP-1 regulation in HepG2 cells", "assay_type": "cell-based, human", "conditions": "data not shown", "excerpt": "Next we investigated the effect of INV-75 in regulating LDL receptor expression in the same cells using a similar protocol to assess dose and temporal dependence. FIGS. 5E and 5F depict the time course of LDL receptor expression and dose dependence in response to INV-75. […] INV-75 had no effects on SREBP-1 regulation (data not shown). Simultaneously multiple genes involved in cholesterol synthesis and regulation, apolipoprotein gene expression and expression of PCSK9 (Proprotein convertase subtilisin/kexin type 9) was tested. The latter gene is known to regulate LDL receptor expression by binding to the epidermal growth factor-like repeat A (EGF-A) domain of the low-density lipoprotein receptor (LDLR), inducing LDLR degradation. Inhibition of PSCK9 function is currently being explored as a means of lowering cholesterol levels."}}, "data": [{"compound": "CC(=O)Oc1cc2c(cc1[N+](=O)[O-])OCO2", "note": "[INV-75, 3,4-methylenedioxy-6-nitrophenyl acetate]", "values": [{"measurement": "LDL", "setting": "C57Bl/6 mice", "result": "significantly lowered"}, {"measurement": "LDL receptor expression in liver (real-time RT-PCR, western blot)", "setting": "C57Bl/6 mice", "result": "increase"}, {"measurement": "SREBP2 activation in liver (EMSA)", "setting": "C57Bl/6 mice", "result": "dramatically activated"}, {"measurement": "other lipoproteins", "setting": "C57Bl/6 mice", "result": "not other lipoproteins"}, {"measurement": "LDL receptor expression", "setting": "LDL receptor", "result": "increases"}, {"measurement": "dose having an effect in increasing the mature form of SREBP-2", "setting": "SREBP-2", "result": "≥ 10", "unit": "nM"}, {"measurement": "SREBP-1 regulation", "setting": "SREBP-1", "result": "no effects"}]}]}
